In brackets after ≈: the same amount, converted by molar mass.
How the values were obtained:
Assay type in all cases: functional
[1] = test system: Mycobacterium tuberculosis; experiment: Antituberculosis activity against 10^7 cfu/mL Mycobacterium tuberculosis H37Rv after 28 days; details: 672 h
Escherichia coli [2] = experiment: Antibacterial activity against Escherichia coli ATCC 25922 after 18 to 24 hrs by NCCLS M7-A5 based agar dilution method
Escherichia coli [3] = experiment: Antibacterial activity against Escherichia coli ATCC 25922 assessed as zone of inhibition at 100 ug/disc after 24 hrs by agar disc diffusion method; details: ATCC 25922, 24 h, read-out: DIZ
Staphylococcus aureus [4] = experiment: Antibacterial activity against Staphylococcus aureus ATCC 11632 after 18 to 24 hrs by NCCLS M7-A5 based agar dilution method
Staphylococcus aureus [5] = experiment: Antibacterial activity against Staphylococcus aureus ATCC 11632 assessed as zone of inhibition at 100 ug/disc after 24 hrs by agar disc diffusion method; details: ATCC 11632, 24 h, read-out: DIZ
Candida albicans [6] = experiment: Antifungal activity against Candida albicans ATCC 90028 after 18 to 24 hrs by NCCLS M7-A5 based agar dilution method
Candida albicans [7] = experiment: Antifungal activity against Candida albicans ATCC 90028 assessed as zone of inhibition at 100 ug/disc after 48 hrs by agar disc diffusion method; details: ATCC 90028, 48 h, read-out: DIZ
Candida albicans [8] = experiment: Antifungal activity against Candida albicans ATCC 90028 assessed as zone of inhibition at 10 ug/disc after 48 hrs by agar disc diffusion method; details: ATCC 90028, 48 h, read-out: DIZ

| Structure (SMILES) | MIC [1] [µM] | MIC (Escherichia coli [2]) [µg/mL] | zone of inhibition at 100 µg/disc (Escherichia coli [3]) [mm] | MIC (Staphylococcus aureus [4]) [µg/mL] | zone of inhibition at 100 µg/disc (Staphylococcus aureus [5]) [mm] | MIC (Candida albicans [6]) [µg/mL] | zone of inhibition at 100 µg/disc (Candida albicans [7]) [mm] | zone of inhibition at 10 µg/disc (Candida albicans [8]) [mm] |
| --- | --- | --- | --- | --- | --- | --- | --- | --- |
| NNC(=O)c1ccncc1 [ISONIAZID] | 0.4 (≈ 0.0549 µg/mL) |  |  |  |  |  |  |  |
| c1ccc([C@H](c2[se]nnc2-c2ccc3ccccc3c2)[C@@H]2CCCc3[se]nnc32)cc1 | 46.8 (≈ 25 µg/mL) | 25 (≈ 46.8 µM) | 10 | 50 (≈ 93.6 µM) | 10 | 50 (≈ 93.6 µM) | 10 |  |
| Cc1ccc([C@H](CC(=O)c2ccccc2)[C@@H]2CCCc3[se]nnc32)cc1 | 15.2 (≈ 6.22 µg/mL) | 25 (≈ 61.1 µM) | < 10 | 12.5 (≈ 30.5 µM) | 15 | 25 (≈ 61.1 µM) | 13 |  |
| COc1ccc(C(=O)C[C@@H](c2ccccc2)[C@@H]2CCCc3[se]nnc32)cc1 | 29.3 (≈ 12.5 µg/mL) | 12.5 (≈ 29.4 µM) | 12 | 25 (≈ 58.8 µM) | 15 | 25 (≈ 58.8 µM) | 15 |  |
| COc1ccc(C(=O)C[C@@H](c2ccc(Cl)cc2)[C@@H]2CCCc3[se]nnc32)cc1 |  | 12.5 (≈ 27.2 µM) | 20 | 12.5 (≈ 27.2 µM) | 20 | 25 (≈ 54.4 µM) | 15 |  |
| Cc1ccc(C(=O)C[C@@H](c2ccc(Cl)cc2)[C@@H]2CCCc3[se]nnc32)cc1 | 3.5 (≈ 1.55 µg/mL) | 12.5 (≈ 28.2 µM) | 15 | 25 (≈ 56.3 µM) | 18 | 12.5 (≈ 28.2 µM) | 17 |  |
| COc1ccc([C@H](CC(=O)c2ccccc2)[C@@H]2CCCc3[se]nnc32)cc1 |  | 25 (≈ 58.8 µM) | 15 | 25 (≈ 58.8 µM) | 18 | 50 (≈ 118 µM) | 12 |  |
| COc1ccc(-c2nn[se]c2[C@@H](c2ccccc2)[C@@H]2CCCc3[se]nnc32)cc1 | 48.6 (≈ 25 µg/mL) | 25 (≈ 48.6 µM) | 12 | 25 (≈ 48.6 µM) | 12 | 50 (≈ 97.2 µM) | 12 |  |
| Clc1ccc([C@H](c2[se]nnc2-c2ccccc2)[C@@H]2CCCc3[se]nnc32)cc1 | 24.1 (≈ 12.5 µg/mL) | 50 (≈ 96.4 µM) | < 10 | 25 (≈ 48.2 µM) | 20 | 25 (≈ 48.2 µM) | 10 |  |
| Clc1ccccc1C(c1ccccc1)(c1ccccc1)n1ccnc1 [CLOTRIMAZOLE] |  |  |  |  |  | 6.25 (≈ 18.1 µM) |  | 28 |
| Cc1ccc(-c2nn[se]c2[C@@H](c2ccccc2)[C@@H]2CCCc3[se]nnc32)cc1 | 50.2 (≈ 25 µg/mL) | 25 (≈ 50.2 µM) | 16 | 50 (≈ 100 µM) | < 10 | 50 (≈ 100 µM) | 10 |  |
| Cc1ccc([C@H](c2[se]nnc2-c2ccccc2)[C@@H]2CCCc3[se]nnc32)cc1 | 50.2 (≈ 25 µg/mL) | 25 (≈ 50.2 µM) | 12 | 12.5 (≈ 25.1 µM) | 16 | 50 (≈ 100 µM) | 10 |  |
| COc1ccc([C@H](c2[se]nnc2-c2ccccc2)[C@@H]2CCCc3[se]nnc32)cc1 | 48.6 (≈ 25 µg/mL) | 50 (≈ 97.2 µM) | 15 | 50 (≈ 97.2 µM) | 15 | 50 (≈ 97.2 µM) | < 10 |  |
